{"source": "paper PMC5999033", "about": "(European journal of medicinal chemistry, 2018)", "key": {"FABP3 [1]": {"molecular_target": "T1, FABP3 (Homo sapiens, UniProt P05413)", "T1 sequence (P05413 whole entry)": "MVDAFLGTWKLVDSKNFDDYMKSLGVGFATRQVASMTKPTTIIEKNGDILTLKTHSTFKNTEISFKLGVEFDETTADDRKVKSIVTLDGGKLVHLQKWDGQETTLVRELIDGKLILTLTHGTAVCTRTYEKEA", "assay": "Direct ligand binding assay of fluorescent probes, FABP3"}, "FABP5 [2]": {"molecular_target": "T2, FABP5 (Homo sapiens, UniProt Q01469)", "T2 sequence (Q01469 whole entry)": "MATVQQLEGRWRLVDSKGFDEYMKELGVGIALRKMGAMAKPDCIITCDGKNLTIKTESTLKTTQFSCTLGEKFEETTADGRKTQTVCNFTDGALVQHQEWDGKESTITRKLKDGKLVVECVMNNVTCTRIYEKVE", "assay": "Direct ligand binding assay of fluorescent probes, FABP5"}, "FABP4": {"molecular_target": "FABP4 (Homo sapiens, UniProt P15090)", "sequence (P15090 whole entry)": "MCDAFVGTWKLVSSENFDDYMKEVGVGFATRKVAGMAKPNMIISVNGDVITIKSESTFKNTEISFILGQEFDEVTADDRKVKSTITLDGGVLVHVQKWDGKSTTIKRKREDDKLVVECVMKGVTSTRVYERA", "assay": "FABP4 inhibition", "details": "Fig. S5"}, "FABP7 [3]": {"molecular_target": "T3, FABP7 (Homo sapiens, UniProt O15540)", "T3 sequence (O15540 whole entry)": "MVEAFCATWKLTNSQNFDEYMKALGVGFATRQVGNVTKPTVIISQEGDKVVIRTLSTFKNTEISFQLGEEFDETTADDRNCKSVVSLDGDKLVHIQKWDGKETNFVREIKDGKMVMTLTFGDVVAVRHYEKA", "assay": "Direct ligand binding assay of fluorescent probes, FABP7"}, "FABP3 [4]": {"molecular_target": "T1, FABP3", "details": "read-out: Kd towards FABP3; determined in a previous study; cited from earlier work"}, "FABP5 [5]": {"molecular_target": "T2, FABP5", "details": "read-out: Kd towards FABP5; determined in a previous study; cited from earlier work"}, "FABP7 [6]": {"molecular_target": "T3, FABP7", "details": "read-out: Kd towards FABP7; determined in a previous study; cited from earlier work"}, "[7]": {"assay": "Dynamic light scattering, colloidal aggregation", "type": "physicochemical", "details": "20 μM in PBS, 24°C"}, "[8]": {"test_system": "formalin-induced mouse models", "details": "cited from earlier work"}}, "note": "Where two headings read alike, the source gives them in different places.", "data": [{"smiles": "CN(C)c1cccc2c(S(=O)(=O)NCCCCCCCCCCC(=O)O)cccc12", "note": "[DAUDA, 11-[5-(Dimethylamino)-1-naphthalenesulfonyl-amino]undecanoic acid]", "values": [{"measurement": "Kd", "setting": "FABP3 [1]", "result": 2040, "unit": "nM"}, {"measurement": "Kd", "setting": "FABP5 [2]", "result": 2560, "unit": "nM"}]}, {"smiles": "COc1ccccc1[C@H]1[C@H](C(=O)O)[C@H](c2ccccc2OC)[C@H]1C(=O)OCC1c2ccccc2-c2ccccc21", "note": "(racemic) [Compound 4j, 9-Fluorenylmethyl α-3-hydroxycarbonyl-2,4-di(2-methoxylphenyl)cyclobutane-1-carboxylate]", "values": [{"measurement": "FABP4 inhibition", "setting": "FABP4", "result": "do not appreciably inhibit FABP4"}]}, {"smiles": "C#Cc1cccc(OC(=O)[C@H]2[C@@H](c3ccccc3)[C@H](C(=O)O)[C@@H]2c2ccccc2)c1", "note": "(racemic) [Compound 3f, 1-(3-Ethynylphenyl) α-3-hydroxycarbonyl-2,4-diphenylcyclobutane-1-carboxylate]", "values": [{"measurement": "FABP4 inhibition", "setting": "FABP4", "result": "do not appreciably inhibit FABP4"}]}, {"smiles": "COc1ccccc1[C@H]1[C@H](C(=O)O)[C@H](c2ccccc2OC)[C@H]1C(=O)Oc1cccc2ccccc12", "note": "(racemic) [Compound 4b, 1-Naphthyl α-3-hydroxycarbonyl-2,4-di(2-methoxylphenyl)cyclobutane-1-carboxylate]", "values": [{"measurement": "FABP4 inhibition", "setting": "FABP4", "result": "do not appreciably inhibit FABP4"}]}, {"smiles": "O=S(=O)(O)c1cccc2cccc(Nc3ccccc3)c12", "note": "[ANS, 1-Anilinonaphthalene-8-sulfonic Acid]", "values": [{"measurement": "Kd", "setting": "FABP7 [3]", "result": 1010, "unit": "nM"}]}, {"smiles": "CCCCCCC(CCCCCCCCCCC(=O)O)N(C)c1ccc([N+](=O)[O-])c2nonc12", "note": "(centres unmarked) [NBD-stearate, 12-N-methyl-(7-nitrobenz-2-oxa-1,3-diazo)aminostearic acid]", "values": [{"measurement": "Kd", "setting": "FABP3 [4]", "result": 18, "unit": "nM"}, {"measurement": "Kd", "setting": "FABP5 [5]", "result": 160, "unit": "nM"}, {"measurement": "Kd", "setting": "FABP7 [6]", "result": 220, "unit": "nM"}]}, {"smiles": "O=C(O)C1C(c2ccccc2)C(C(=O)O[C@@H]2CCCC[C@H]2c2ccccc2)C1c1ccccc1", "note": "(stereo partly drawn) [Compound 3l, 1-[(1R,2S)-2-Phenylcyclohexyl] α-3-hydroxycarbonyl-2,4-diphenylcyclobutane-1-carboxylate]", "values": [{"measurement": "colloidal aggregation by DLS", "setting": "[7]", "result": "no evidence of colloidal aggregation"}]}, {"smiles": "COc1cc([C@H]2[C@H](C(=O)O[C@@H]3C[C@@H]4[C@@H](CN(C)C[C@@H]4C)[C@@H]3C)[C@H](c3ccc(O)c(OC)c3)[C@H]2C(=O)O[C@@H]2C[C@@H]3[C@@H](CN(C)C[C@@H]3C)[C@@H]2C)ccc1O", "note": "[(-)-incarvillateine]", "values": [{"measurement": "analgesic and anti-inflammatory effects", "setting": "[8]", "result": "potent analgesic and anti-inflammatory effects"}]}]}
